± gives the standard deviation of the averaged measurements.
System: HepaRG
Experiment: LDH release cytotoxicity, % of total lysis control; higher = more cytotoxic
Settings: 48 h
Method in brief: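 Percent cytotoxicity was scaled between on-plate vehicle and total lysis controls, then averaged over duplicate wells. The cells were single-lot HepaRG on collagen I-coated 96-well plates, exposed for 48 h to eight-point half-log test chemical series topping at 100 µM in serum-free induction medium with 0.5% DMSO. Total lysis wells got 0.1% Triton X, and LDH in 50 µL spent medium was read as resorufin fluorescence (CytoTox-ONE, Tecan Safire).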

O=C(NS(=O)(=O)C=Cc1ccccc1)c1ccc(F)cc1Cl
Settings | LDH release cytotoxicity [%]
0.03162 µM | -0.138 ± 0.18
0.1 µM | -1.32 ± 0.77
0.3162278 µM | -0.79 ± 0.41
1 µM | -2.23 ± 0.62
3.16228 µM | -1.4 ± 0.85
10 µM | -0.621 ± 0.72
31.6228 µM | -0.552 ± 1.1
100 µM | 1.91 ± 1.4

O=C(Nc1ccc2[nH]ccc2c1)c1cc2cc(F)ccc2n1Cc1cccc(F)c1
Settings | LDH release cytotoxicity [%]
0.02625 µM | -0.0757 ± 2.2
0.083 µM | -0.934 ± 1.2
0.262469 µM | -1.53 ± 0.6
0.83 µM | -0.536 ± 0.036
2.62469 µM | -0.9 ± 0.47
8.3 µM | -0.744 ± 0.035
26.2469 µM | 8.37 ± 1.7
83 µM | 93.9 ± 2.4

N#Cc1ccc(N(CC(N)=O)CC(F)(F)F)cc1C(F)(F)F
Settings | LDH release cytotoxicity [%]
0.03162 µM | -0.784 ± 0.86
0.1 µM | -0.777 ± 1.4
0.3162278 µM | -1.03 ± 1.4
1 µM | -1.38 ± 0.065
3.16228 µM | -0.891 ± 1.1
10 µM | 0.346 ± 0.016
31.6228 µM | -0.599 ± 0.47
100 µM | -0.34 ± 0.95

NC(=O)N(O)C1COc2cc(OCc3ccccc3)ccc21 (centres undefined)
Settings | LDH release cytotoxicity [%]
0.02846 µM | -1.76 ± 0.2
0.09 µM | -2.99 ± 1.7
0.284605 µM | -1.03 ± 1.1
0.9 µM | -2.27 ± 0.15
2.84605 µM | -0.514 ± 0.72
9 µM | 0.238 ± 0.36
28.4605 µM | 3.46 ± 0.72
90 µM | 22.46 ± 0.1

O=C(N[C@H](c1ccccc1)[C@@H]1CN2CCC1CC2)c1c(Cl)ccc(C(F)(F)F)c1Cl
Settings | LDH release cytotoxicity [%]
0.0292511 µM | -0.907 ± 0.47
0.0925 µM | -0.886 ± 1.1
0.292511 µM | -1.02 ± 1.4
0.925 µM | -1.22 ± 0.28
2.9251068 µM | -0.0305 ± 0.38
9.25 µM | 1.38 ± 1.5
29.251068 µM | 16.1 ± 3
92.5 µM | 82.5 ± 6

O=C1c2ccccc2C(=O)N1CCc1noc(-c2ccc(CN3CCCCCC3)s2)n1
Settings | LDH release cytotoxicity [%]
0.026721 µM | 1.83 ± 0.47
0.0845 µM | -0.403 ± 0.25
0.267212 µM | -0.399 ± 0.032
0.845 µM | -0.205 ± 0.38
2.67212 µM | -7.752 ± 0.013
8.45 µM | 7.6 ± 1.2
26.7213 µM | 1.47 ± 2.3
84.5 µM | -1.5 ± 0.19

O=C(O)c1cccc(N(Cc2cccnc2)c2ccc(OC(F)F)c(OC(F)F)c2)c1
Settings | LDH release cytotoxicity [%]
0.03162 µM | -1.28 ± 0.33
0.1 µM | -1.45 ± 0.3
0.3162278 µM | -1.1 ± 0.23
1 µM | -1.77 ± 0.18
3.16228 µM | -1.858 ± 0.0033
10 µM | -2.03 ± 0.35
31.6228 µM | -2.58 ± 0.68
100 µM | -1.73 ± 0.97

O=C(O)c1cccc(CC2COc3ccc(OCc4nc5cc(F)ccc5s4)cc3C2O)c1 (centres undefined)
Settings | LDH release cytotoxicity [%]
0.03162 µM | -0.0534 ± 0.17
0.1 µM | -0.136 ± 0.15
0.3162278 µM | -0.338 ± 0.55
1 µM | -1.53 ± 0.39
3.16228 µM | -0.67 ± 0.41
10 µM | -0.7031 ± 0.0048
31.6228 µM | 0.475 ± 0.99
100 µM | 39.6 ± 3.9

Oc1ccc2c(c1)OCC(N1CCC(O)(c3ccc(F)cc3)CC1)C2O (centres undefined)
Settings | LDH release cytotoxicity [%]
0.01581 µM | -1 ± 0.72
0.05 µM | 0.886 ± 1.8
0.1581139 µM | 0.0464 ± 0.5
0.5 µM | 0.111 ± 0.36
1.5811388 µM | 0.298 ± 0.66
5 µM | 0.5713 ± 0.0015
15.8114 µM | 1.05 ± 0.36
50 µM | 0.322 ± 0.4

OCC(CO)n1cnc(-c2ccc(F)cc2)c1-c1ccnc(Oc2ccccc2)n1
Settings | LDH release cytotoxicity [%]
0.029093 µM | -1.79 ± 1.4
0.092 µM | -1.44 ± 0.51
0.29093 µM | -0.719 ± 2.1
0.92 µM | -1.96 ± 0.076
2.9092954 µM | -2.48 ± 0.61
9.2 µM | -2.62 ± 0.29
29.093 µM | 0.252 ± 0.39
92 µM | 51.2 ± 11

O=C(O)CCN(C1(C(=O)NO)CCCC1)S(=O)(=O)c1ccc(Oc2ccc(F)cc2)cc1
Settings | LDH release cytotoxicity [%]
0.03162 µM | -0.305 ± 0.084
0.1 µM | -1.01 ± 0.31
0.3162278 µM | -0.589 ± 0.48
1 µM | -0.176 ± 0.047
3.16228 µM | -0.0966 ± 0.082
10 µM | 0.986 ± 0.25
31.6228 µM | 0.193 ± 0.77
100 µM | 1.19 ± 0.31

O=C(NO)C1(NS(=O)(=O)c2ccc(Oc3ccc(F)cc3)cc2)CCOCC1
Settings | LDH release cytotoxicity [%]
0.03162 µM | 0.225 ± 0.2
0.1 µM | -0.912 ± 0.77
0.3162278 µM | -0.649 ± 0.23
1 µM | -0.54 ± 0.41
3.16228 µM | -0.318 ± 0.55
10 µM | -0.00829 ± 0.11
31.6228 µM | -1.25 ± 0.49
100 µM | 10.5 ± 1.4

N#CC1CC(F)(F)CN1C(=O)CNC1CC2CCC(C1)N2c1ncccn1 (centres undefined)
Settings | LDH release cytotoxicity [%]
0.03162 µM | -1.64 ± 0.046
0.1 µM | -2.99 ± 0.32
0.3162278 µM | -2.24 ± 0.023
1 µM | -2.72 ± 0.35
3.16228 µM | -2.06 ± 0.031
10 µM | -1.96 ± 0.71
31.6228 µM | -1.33 ± 0.77
100 µM | -1.49 ± 0.99

Reference: the supplement of paper PMC7840683
